The source of these data is PubChem BioAssay AID504675 (Southern Research Specialized Biocontainment Screening …, 2011).

The test system of this assay is E. coli UTI89 K1 capsule, phage K1F lysis, OD600. Kind of assay: inhibition of K1F phage lysis of E. coli UTI89, dose response, capsule biogenesis inhibitor project, strain UTI89, C7 control, set 3 (AID 504675). The conditions noted are these: measured here: cytotoxicity test.

For `N=c1n(CCN2CCCC2)c2ccccc2n1CC(O)c1ccc(Cl)c(Cl)c1` (stereo not given), the CC50 – broadly, the concentration at which the toxic effect on the cells reaches its halfway point – came to 9.38 µM. This lies in the single-digit micromolar range.

Take `COc1ccc2nc(NC(=O)c3ccccc3OC)sc2c1`: the CC50 came to 66.8 µM.

As to `O=C(O)c1cc(-c2cccc(F)c2)nc2ccccc12`, the CC50 is over 300 µM.

Take `COc1cccc(-c2cc(C(=O)O)c3ccccc3n2)c1`: the CC50 is 78.3 µM. In other words, the double-digit micromolar range.

Regarding `COc1ccc2nc(NC(=O)c3ccc(F)cc3)sc2c1`, the CC50 amounted to 21.7 µM.

The compound `COc1ccc(C(=O)Nc2nc3ccc(OC)cc3s2)cc1` had a half-maximal cytotoxic concentration (CC50) of over 300 µM.

For the compound `COc1ccc2nc(NC(=O)c3ccco3)sc2c1`, the CC50 turned out to be 93.4 µM.

Compound `COc1ccc2nc(NC(=O)c3cccs3)sc2c1` displayed a CC50 of 104 µM.

The compound `COc1cccc(C(=O)Nc2nc3ccc(OC)cc3s2)c1` showed a CC50 of 23.4 µM.

`COc1ccc2nc(NC(=O)c3ccccc3)sc2c1` returned a half-maximal cytotoxic concentration (CC50) of 45.4 µM.
